Test results reported in patent publication US8697687B2, “Treating diseases mediated by blockade of the epithelial sodium channel with pyrazine-2-carboxamide derivatives” (Novartis AG, priority 2007, dated 2014).

target: T1, epithelial sodium channel (ENaC) (Homo sapiens, UniProt P37088+P51168+P51170); assay: Short circuit current (ISC) measurements in Human Bronchial Epithelial cells, inhibition of amiloride-sensitive ISC; format: cell-based; conditions: not given
T1 construct: host or cells: primary Human Bronchial Epithelial cells (HBECs), air-liquid interface culture
T1 sequence (P37088 1-669): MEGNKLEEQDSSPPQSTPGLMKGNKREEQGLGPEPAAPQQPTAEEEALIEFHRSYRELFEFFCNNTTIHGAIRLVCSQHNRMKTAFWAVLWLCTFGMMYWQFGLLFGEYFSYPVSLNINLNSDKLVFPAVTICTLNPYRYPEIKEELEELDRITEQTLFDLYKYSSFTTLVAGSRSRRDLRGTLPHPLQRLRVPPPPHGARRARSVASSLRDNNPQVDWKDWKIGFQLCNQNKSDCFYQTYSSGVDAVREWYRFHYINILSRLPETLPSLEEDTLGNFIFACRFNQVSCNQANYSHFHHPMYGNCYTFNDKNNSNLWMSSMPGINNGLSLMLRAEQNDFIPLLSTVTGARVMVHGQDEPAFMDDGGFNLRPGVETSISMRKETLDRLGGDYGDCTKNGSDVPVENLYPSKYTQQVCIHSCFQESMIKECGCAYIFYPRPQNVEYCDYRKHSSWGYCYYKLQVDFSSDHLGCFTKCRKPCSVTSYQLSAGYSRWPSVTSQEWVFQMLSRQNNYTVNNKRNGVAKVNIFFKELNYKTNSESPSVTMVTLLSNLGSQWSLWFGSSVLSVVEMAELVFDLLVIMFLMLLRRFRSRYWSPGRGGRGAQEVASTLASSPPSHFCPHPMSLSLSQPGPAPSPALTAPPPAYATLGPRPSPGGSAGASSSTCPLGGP
T1 sequence (P51168 1-640): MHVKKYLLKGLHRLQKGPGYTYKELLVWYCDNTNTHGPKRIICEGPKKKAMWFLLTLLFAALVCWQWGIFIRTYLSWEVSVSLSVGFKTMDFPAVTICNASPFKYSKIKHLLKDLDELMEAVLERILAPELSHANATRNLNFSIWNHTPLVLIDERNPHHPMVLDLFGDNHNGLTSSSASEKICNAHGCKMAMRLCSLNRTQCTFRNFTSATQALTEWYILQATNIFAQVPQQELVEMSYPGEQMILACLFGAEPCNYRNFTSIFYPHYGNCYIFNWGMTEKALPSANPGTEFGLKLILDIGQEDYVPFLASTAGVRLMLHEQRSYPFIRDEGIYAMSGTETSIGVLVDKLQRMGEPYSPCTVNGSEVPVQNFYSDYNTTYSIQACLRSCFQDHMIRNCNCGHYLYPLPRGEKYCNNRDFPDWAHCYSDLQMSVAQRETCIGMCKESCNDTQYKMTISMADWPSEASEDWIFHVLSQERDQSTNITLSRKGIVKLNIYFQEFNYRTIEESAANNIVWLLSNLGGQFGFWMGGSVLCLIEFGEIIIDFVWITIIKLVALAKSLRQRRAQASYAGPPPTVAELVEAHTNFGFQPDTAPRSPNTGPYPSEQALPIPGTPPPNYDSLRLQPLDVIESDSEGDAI
T1 sequence (P51170 1-649): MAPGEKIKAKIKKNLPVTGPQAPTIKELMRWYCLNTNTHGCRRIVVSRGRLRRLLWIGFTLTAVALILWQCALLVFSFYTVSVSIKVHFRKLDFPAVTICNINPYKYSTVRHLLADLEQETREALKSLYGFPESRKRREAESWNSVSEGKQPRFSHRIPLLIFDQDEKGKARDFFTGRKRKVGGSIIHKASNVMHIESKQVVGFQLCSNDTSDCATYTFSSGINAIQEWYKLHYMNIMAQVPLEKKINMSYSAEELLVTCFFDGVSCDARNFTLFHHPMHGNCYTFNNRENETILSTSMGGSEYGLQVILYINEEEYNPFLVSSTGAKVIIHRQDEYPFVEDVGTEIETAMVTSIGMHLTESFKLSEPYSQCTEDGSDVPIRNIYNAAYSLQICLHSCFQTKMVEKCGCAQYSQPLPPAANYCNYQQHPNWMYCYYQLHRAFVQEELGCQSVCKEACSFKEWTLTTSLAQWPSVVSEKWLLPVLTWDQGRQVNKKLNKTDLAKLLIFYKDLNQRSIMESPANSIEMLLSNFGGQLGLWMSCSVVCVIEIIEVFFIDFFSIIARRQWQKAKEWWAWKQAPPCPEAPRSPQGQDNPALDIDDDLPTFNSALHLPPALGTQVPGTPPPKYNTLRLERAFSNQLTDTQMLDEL
Description: Compounds of formula (I) and their pharmaceutically acceptable salts, hereinafter referred to alternatively as “agents of the invention”, are useful as pharmaceuticals. In particular, the compounds have good ENaC blocker activity and may be tested in the following assays.
Human Bronchial Epithelial cells (HBECs) (Cambrex) were cultured under air-liquid interface conditions to provide a well differentiated mucociliary phenotype.
HBECs were cultured using a modification of the method described by Gray and colleagues (Gray et al., 1996). Cells were seeded in plastic T-162 flasks and were grown in bronchial epithelial cell growth medium (BEGM; Cambrex) supplemented with bovine pituitary extract (52 μg/mL), hydrocortisone (0.5 μg/mL), human recombinant epidermal growth factor (0.5 ng/mL), epinephrine (0.5 μg/mL), transferrin (10 μg/mL), insulin (5 μg/mL), retinoic acid (0.1 μg/mL), triiodothyronine ([…]), gentamycin (50 μg/mL) and amphotericin B (50 ng/mL). Medium was changed every 48 hours until cells were 90% confluent. Cells were then passaged and seeded (8.25×10^5 cells/insert) on polycarbonate Snapwell inserts (Costar) in differentiation media containing 50% DMEM in BEGM with the same supplements as above but without triiodothyronine and a final retinoic acid concentration of 50 nM (all-trans retinoic acid). Cells were maintained submerged for the first 7 days in culture, after which time they were exposed to an apical air interface for the remainder of the culture period. At this time, media was changed to DMEM:F12 media containing 2% v/v Ultroser G for the remainder of culture. Amphotericin B was removed from all media 3 feeds prior to use in the Using Chambers. Cells were used between days 7 and 21 after establishment of the apical-air interface. At all stages of culture, cells were maintained at 37° C. in 5% CO2 in an air incubator.
Short Circuit Current (ISC) Measurements
Snapwell inserts were mounted in Vertical Diffusion Chambers (Costar) and were bathed with continuously gassed Ringer solution (5% CO2 in O2; pH 7.4) maintained at 37° C. containing (in mM): 120 NaCl, 25 NaHCO3, 3.3 KH2PO4, 0.8 K2HPO4, 1.2 CaCl2, 1.2 MgCl2, and 10 glucose. The solution osmolarity was between 280 and 300 mOsmol/kg H2O for all physiological salt solutions used. Cells were voltage clamped to 0 mV (model EVC4000; WPI). RT was measured by applying a 1- or 2-mV pulse at 30-s intervals and calculating RT by Ohm's law. Data were recorded using a PowerLab workstation (ADInstruments).
Test compounds were prepared as a 10 mM stock solution in DMSO (95%). Serial 3-fold dilutions were freshly prepared in an appropriate vehicle (distilled H2O or Ringers solution). The initial concentration was added to the apical chamber as a 1000× concentrate in 5 μL, resulting in a final 1× concentration the 5 mL volume of the Ussing chamber. Subsequent additions of compound were added in a 3.3 μL volume of the 1000× serially diluted stock solution. At the completion of the concentration-response experiment, amiloride (10 μM) was added into the apical chamber to enable the total amiloride-sensitive current to be measured. An amiloride control IC50 was established at the start of each experiment.
Results are expressed as the mean % inhibition of the amiloride-sensitive ISC. Concentration-response curves were plotted and IC50 values generated using GraphPad Prism 3.02. Cell inserts were typically run in duplicate and the IC50 calculated on the mean % inhibition data.

**Q.** Which IC50 does the source give for `CC(C)(C)c1ccc(OCCn2ccc3c(C(=O)N4CCC5(CC4)CN/C(=N\C(=O)c4nc(Cl)c(N)nc4N)N5)cccc32)cc1` [Example 86, 3,5-Diamino-6-chloro-pyrazine-2-carboxylic acid [8-{1-[2-(4-tert-butyl-phenoxy)-ethyl]-1H-indole-4-carbonyl}-1,3,8-triaza-spiro[4.5]dec-(2E)-ylidene]-amide] here?
**A.** 8 nM

**Q.** For `Nc1nc(N)c(C(=O)/N=C2\NCC3(CCN(C(=O)c4ccc(C(=O)N5CCC6(CC5)CN/C(=N\C(=O)c5nc(Cl)c(N)nc5N)N6)cc4)CC3)N2)nc1Cl` [Example 96], which IC50 is on record?
**A.** 37 nM

same assay, conditions: inhibition of the amiloride-sensitive ISC; Human Bronchial Epithelial cells (HBECs) at air-liquid interface; compound added to apical chamber; read-out: IC50

**Q.** How did the IC50 turn out when `Cc1[nH]c2ccc(CC(=O)N3CCC4(CC3)CN/C(=N\C(=O)c3nc(Cl)c(N)nc3N)N4)cc2c1C` [Example 48, 3,5-Diamino-6-chloro-pyrazine-2-carboxylic acid [8-[2-(2,3-dimethyl-1H-indol-5-yl)-acetyl]-1,3,8-triaza-spiro[4.5]dec-(2E)-ylidene]-amide] was run?
**A.** 16.5 nM

**Q.** With `Cc1nc(-c2ccccc2)ncc1C(=O)N1CCC2(CC1)CN/C(=N\C(=O)c1nc(Cl)c(N)nc1N)N2` [Example 58, 3,5-Diamino-6-chloro-pyrazine-2-carboxylic acid [8-(4-methyl-2-phenyl-pyrimidine-5-carbonyl)-1,3,8-triaza-spiro[4.5]dec-(2E)-ylidene]-amide] as the molecule, how does the IC50 read?
**A.** 143 nM

**Q.** `COc1cc(OC)nc(COc2ccc(C(=O)N3CCC4(CC3)CN/C(=N\C(=O)c3nc(Cl)c(N)nc3N)N4)cc2)n1` [Example 61, 3,5-Diamino-6-chloro-pyrazine-2-carboxylic acid [8-[4-(4,6-dimethoxy-pyrimidin-2-ylmethoxy)-benzoyl]-1,3,8-triaza-spiro[4.5]dec-(2E)-ylidene]-amide] was tested. Which IC50 did it give?
**A.** 346 nM

**Q.** Which IC50 does the source give for `CC(C)NC(=O)Nc1cc(C(=O)N2CCC3(CC2)CN/C(=N\C(=O)c2nc(Cl)c(N)nc2N)N3)ccn1` [Example 62, 3,5-Diamino-6-chloro-pyrazine-2-carboxylic acid [8-[2-(3-isopropyl-ureido)-pyridine-4-carbonyl]-1,3,8-triaza-spiro[4.5]dec-(2E)-ylidene]-amide] here?
**A.** 13 nM

**Q.** Which IC50 does the source give for `CC(C)NC(=O)Nc1ccc(C(=O)N2CCC3(CC2)CN/C(=N\C(=O)c2nc(Cl)c(N)nc2N)N3)cc1` [Example 64, 3,5-Diamino-6-chloro-pyrazine-2-carboxylic acid [8-[4-(3-isopropyl-ureido)-benzoyl]-1,3,8-triaza-spiro[4.5]dec-(2E)-ylidene]-amide] here?
**A.** 25.5 nM

**Q.** `CC(C)NC(=O)Nc1ccc(C(=O)N2CCC3(CC2)CN/C(=N\C(=O)c2nc(Cl)c(N)nc2N)N3)cn1` [Example 65, 3,5-Diamino-6-chloro-pyrazine-2-carboxylic acid [8-[6-(3-isopropyl-ureido)-pyridine-3-carbonyl]-1,3,8-triaza-spiro[4.5]dec-(2E)-ylidene]-amide] was tested. Which IC50 did it give?
**A.** 39.5 nM

**Q.** With `Nc1nc(N)c(C(=O)/N=C2\NCC3(CCN(C(=O)CCc4ccc(OCc5ccncc5)cc4)CC3)N2)nc1Cl` [Example 70, 3,5-Diamino-6-chloro-pyrazine-2-carboxylic acid [8-{3-[4-(pyridin-4-ylmethoxy)-phenyl]-propionyl}-1,3,8-triaza-spiro[4.5]dec-(2E)-ylidene]-amide] as the molecule, how does the IC50 read?
**A.** 74 nM

**Q.** With `CC(C)(C)OC(=O)COc1ccc(CCC(=O)N2CCC3(CC2)CN/C(=N\C(=O)c2nc(Cl)c(N)nc2N)N3)cc1` [Example 71, [4-(3-{2-[(E)-3,5-Diamino-6-chloro-pyrazine-2-carbonylimino]-1,3,8-triaza-spiro[4.5]dec-8-yl}-3-oxo-propyl)-phenoxy]-acetic acid tert-butyl] as the molecule, how does the IC50 read?
**A.** 42 nM

**Q.** With `CC(C)(C)OC(=O)c1ccc(C(=O)N2CCC3(CC2)CN/C(=N\C(=O)c2nc(Cl)c(N)nc2N)N3)cc1` [Example 76, 4-{2-[(E)-3,5-Diamino-6-chloro-pyrazine-2-carbonylimino]-1,3,8-triaza-spiro[4.5]decane-8-carbonyl}-benzoic acid tert-butyl ester] as the molecule, how does the IC50 read?
**A.** 12 nM

**Q.** `CCN(CC)C(=O)Cn1ccc2c(C(=O)N3CCC4(CC3)CN/C(=N\C(=O)c3nc(Cl)c(N)nc3N)N4)cccc21` [Example 91, 3,5-Diamino-6-chloro-pyrazine-2-carboxylic acid [8-(1-diethylcarbamoylmethyl-1H-indole-4-carbonyl)-1,3,8-triaza-spiro[4.5]dec-(2E)-ylidene]-amide] was tested. Which IC50 did it give?
**A.** 88.5 nM

**Q.** With `Nc1nc(N)c(C(=O)/N=C2\NCC3(CCN(C(=O)[C@H]4CC[C@H](C(=O)N5CCC6(CC5)CN/C(=N\C(=O)c5nc(Cl)c(N)nc5N)N6)CC4)CC3)N2)nc1Cl` [Example 94] as the molecule, how does the IC50 read?
**A.** 9 nM

**Q.** `Nc1nc(N)c(C(=O)/N=C2\NCC3(CCN(C(=O)c4cccc5[nH]ccc45)CC3)N2)nc1Cl` [Example 99, 3,5-Diamino-6-chloro-pyrazine-2-carboxylic acid [8-(1H-indole-4-carbonyl)-1,3,8-triaza-spiro[4.5]dec-(2E)-ylidene]-amide] was tested. Which IC50 did it give?
**A.** 19 nM
